Experimental data: ChEMBL document CHEMBL5230142, “Natural spirocyclic alkaloids and polyphenols as multi target dementia leads” (Bioorg Med Chem, 2021)

Columns and labels:
[1] = Drug metabolism in RN rat assessed as epimerization ratio at 20 mg/kg, po; type: ADME, organism-based; conditions: in vivo, read-out: Drug metabolism
[2] = target: T1, 5-hydroxytryptamine receptor 1A (Homo sapiens, UniProt P08908); experiment: Agonist activity at 5HT1A (unknown origin) receptor
T1 sequence (P08908 whole entry): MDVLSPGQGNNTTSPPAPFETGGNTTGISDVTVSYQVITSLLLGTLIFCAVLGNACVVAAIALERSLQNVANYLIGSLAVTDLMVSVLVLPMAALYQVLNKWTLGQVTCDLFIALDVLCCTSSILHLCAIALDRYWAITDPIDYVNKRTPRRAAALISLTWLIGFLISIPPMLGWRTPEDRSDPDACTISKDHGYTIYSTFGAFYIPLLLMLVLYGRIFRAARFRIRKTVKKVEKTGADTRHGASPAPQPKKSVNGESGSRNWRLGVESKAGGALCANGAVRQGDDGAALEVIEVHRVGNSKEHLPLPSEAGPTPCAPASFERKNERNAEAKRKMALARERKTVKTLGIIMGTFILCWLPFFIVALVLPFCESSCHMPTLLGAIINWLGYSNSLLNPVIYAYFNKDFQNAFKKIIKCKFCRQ

[3] = Oral bioavailability in RN rat at 20 mg/kg; type: ADME, organism-based; conditions: in vivo
[4] = target: Beta-secretase 1 (Homo sapiens, UniProt P56817); experiment: Inhibition of human BACE1 (1 to 454 residues) using APP harboring Swedish Lys/Met mutant-derived peptide as substrate by FRET assay
Chain of Beta-secretase 1 (P56817 whole entry, the tested form may be a part): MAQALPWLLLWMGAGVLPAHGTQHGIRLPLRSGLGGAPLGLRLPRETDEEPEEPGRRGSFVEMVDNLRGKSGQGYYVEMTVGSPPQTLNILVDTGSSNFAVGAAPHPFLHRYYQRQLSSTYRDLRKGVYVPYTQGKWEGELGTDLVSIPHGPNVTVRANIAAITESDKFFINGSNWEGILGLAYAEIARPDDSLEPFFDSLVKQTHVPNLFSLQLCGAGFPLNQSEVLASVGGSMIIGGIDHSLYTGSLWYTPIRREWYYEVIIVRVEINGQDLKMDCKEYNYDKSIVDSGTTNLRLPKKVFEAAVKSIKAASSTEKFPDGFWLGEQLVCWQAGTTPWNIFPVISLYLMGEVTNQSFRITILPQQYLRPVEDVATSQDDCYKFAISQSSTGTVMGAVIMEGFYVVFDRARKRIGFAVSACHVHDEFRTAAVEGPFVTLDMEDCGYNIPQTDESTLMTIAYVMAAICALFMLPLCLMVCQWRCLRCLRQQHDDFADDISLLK

[5] = tested on: SH-SY5Y; experiment: Neuroprotective activity in human SH-SY5Y cells assessed as prevention of glyceraldehyde-induced neurite shortening at 10 uM incubated for 72 hrs by microsocopic analysis; type: functional
[6] = target: Amyloid-beta precursor protein (Homo sapiens) (UniProt P05067); experiment: Inhibition of amyloid beta (unknown origin) at 10 uM relative to control
Chain of Amyloid-beta precursor protein (Homo sapiens) (P05067 whole entry): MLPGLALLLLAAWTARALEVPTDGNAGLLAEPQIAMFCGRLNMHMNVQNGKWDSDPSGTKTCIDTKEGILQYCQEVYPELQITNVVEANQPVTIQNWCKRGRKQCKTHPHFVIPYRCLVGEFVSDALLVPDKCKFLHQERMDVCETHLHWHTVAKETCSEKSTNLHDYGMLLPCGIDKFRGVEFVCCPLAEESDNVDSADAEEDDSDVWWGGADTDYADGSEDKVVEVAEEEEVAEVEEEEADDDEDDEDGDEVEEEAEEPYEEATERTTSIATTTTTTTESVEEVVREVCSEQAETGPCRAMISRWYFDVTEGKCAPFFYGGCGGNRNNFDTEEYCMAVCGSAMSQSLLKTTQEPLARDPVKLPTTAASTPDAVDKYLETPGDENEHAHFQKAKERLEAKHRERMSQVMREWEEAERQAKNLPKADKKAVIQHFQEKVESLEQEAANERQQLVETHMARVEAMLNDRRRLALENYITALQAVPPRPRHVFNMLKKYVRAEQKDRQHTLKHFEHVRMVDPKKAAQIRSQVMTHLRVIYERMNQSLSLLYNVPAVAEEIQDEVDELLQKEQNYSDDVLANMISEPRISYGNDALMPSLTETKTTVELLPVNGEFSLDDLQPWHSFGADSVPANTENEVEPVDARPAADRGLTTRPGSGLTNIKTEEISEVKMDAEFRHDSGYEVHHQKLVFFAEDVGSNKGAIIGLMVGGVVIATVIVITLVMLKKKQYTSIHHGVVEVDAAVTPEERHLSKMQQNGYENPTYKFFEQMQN

[7] = target: Gamma-secretase; experiment: Inhibition of gamma-secretase (unknown origin); type: protein-complex assay, Homo sapiens
[8] = target: Gamma-secretase (Homo sapiens) (UniProt Q96BI3+Q9NZ42+Q8WW43+P49768+Q92542+P49810); experiment: Binding affinity to his-tagged gamma-secretase (unknown origin) assessed as equilibrium constant by surface plasmon resonance analysis; type: protein-complex assay
[9] = tested on: VSMC; experiment: Cytotoxicity against rat VSMC cells assessed as reduction in cell viability at 20 uM measured after 4 days; type: toxicity, cell-based; conditions: 96 h, time 4 day
[10] = tested on: VSMC; experiment: Cytotoxicity against rat VSMC cells assessed as reduction in cell viability at 5 uM measured after 4 days; type: toxicity, cell-based; conditions: 96 h, time 4 day
[11] = tested on: VSMC; experiment: Cytotoxicity against rat VSMC cells assessed as reduction in cell viability at 50 uM measured after 4 days; type: toxicity, cell-based; conditions: 96 h, time 4 day
[12] = target: Amyloid-beta precursor protein (Homo sapiens) (UniProt P05067); experiment: Inhibition of amyloid beta (unknown origin) fibril formation at 20 uM incubated for 7 days by ThT fluorescence assay relative to control; conditions: time 7.0 day
[13] = Cmax in mouse plasma at 250 mg/kg, po measured after 24 hrs; type: ADME, organism-based; design: dose 250 mg/kg, time 24 hrs, route po
[14] = target: Amyloid-beta precursor protein (Homo sapiens) (UniProt P05067); experiment: Inhibition of amyloid beta (unknown origin) assessed as reduction in fibril disaggregation at 20 uM incubated for 7 days by ThT fluorescence assay relative to control; conditions: time 7.0 day
[15] = tested on: SH-SY5Y; experiment: Neuroprotective activity in human SH-SY5Y cells assessed as prevention of glyceraldehyde-induced neurite shortening at 1 uM incubated for 72 hrs by microsocopic analysis; type: functional
[16] = target: T2, Acetylcholinesterase (Homo sapiens, UniProt P22303); experiment: Inhibition of AChE (unknown origin) using acetylthiocholine iodide as substrate preincubated for 20 mins by DTNB reagent based Ellman's method
T2 sequence (P22303 whole entry): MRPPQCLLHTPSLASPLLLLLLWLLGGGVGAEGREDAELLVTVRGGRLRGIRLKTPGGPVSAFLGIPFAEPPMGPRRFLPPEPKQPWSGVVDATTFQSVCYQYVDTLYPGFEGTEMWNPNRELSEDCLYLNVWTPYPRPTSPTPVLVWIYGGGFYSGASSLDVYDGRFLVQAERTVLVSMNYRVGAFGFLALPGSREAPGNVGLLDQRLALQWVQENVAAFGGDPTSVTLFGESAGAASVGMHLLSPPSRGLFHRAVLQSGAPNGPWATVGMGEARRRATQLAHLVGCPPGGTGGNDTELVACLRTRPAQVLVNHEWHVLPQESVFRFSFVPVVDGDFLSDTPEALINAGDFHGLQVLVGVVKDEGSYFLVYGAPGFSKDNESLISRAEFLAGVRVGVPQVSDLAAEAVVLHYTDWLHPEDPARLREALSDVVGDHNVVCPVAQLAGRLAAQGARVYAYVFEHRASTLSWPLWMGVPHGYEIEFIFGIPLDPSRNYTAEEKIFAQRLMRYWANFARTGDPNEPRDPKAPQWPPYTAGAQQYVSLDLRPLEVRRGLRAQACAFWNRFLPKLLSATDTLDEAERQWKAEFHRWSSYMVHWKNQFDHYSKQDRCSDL

[17] = target: T2, Acetylcholinesterase; experiment: Inhibition of human recombinant AChE using acetylthiocholine chloride as substrate incubated for 20 mins by DTNB reagent based Ellman's method
[18] = target: Melatonin receptor type 1A (Homo sapiens, UniProt P48039); experiment: Agonist activity at human melatonin MT1 receptor stably expressing in human HEK293 cells; type: cell-based
Chain of Melatonin receptor type 1A (P48039 whole entry): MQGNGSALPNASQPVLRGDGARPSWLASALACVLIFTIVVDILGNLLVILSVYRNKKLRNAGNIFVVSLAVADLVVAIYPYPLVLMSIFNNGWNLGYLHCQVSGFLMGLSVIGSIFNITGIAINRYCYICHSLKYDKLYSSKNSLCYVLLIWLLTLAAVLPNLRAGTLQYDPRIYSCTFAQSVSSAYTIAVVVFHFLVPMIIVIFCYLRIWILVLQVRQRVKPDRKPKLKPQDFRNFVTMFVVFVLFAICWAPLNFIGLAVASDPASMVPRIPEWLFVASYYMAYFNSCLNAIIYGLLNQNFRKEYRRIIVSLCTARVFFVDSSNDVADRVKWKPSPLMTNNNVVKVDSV

[19] = target: T3, Melatonin receptor type 1B (Homo sapiens, UniProt P49286); experiment: Agonist activity at human melatonin MT2 receptor stably expressing in human HEK293 cells; type: cell-based
T3 sequence (P49286 whole entry): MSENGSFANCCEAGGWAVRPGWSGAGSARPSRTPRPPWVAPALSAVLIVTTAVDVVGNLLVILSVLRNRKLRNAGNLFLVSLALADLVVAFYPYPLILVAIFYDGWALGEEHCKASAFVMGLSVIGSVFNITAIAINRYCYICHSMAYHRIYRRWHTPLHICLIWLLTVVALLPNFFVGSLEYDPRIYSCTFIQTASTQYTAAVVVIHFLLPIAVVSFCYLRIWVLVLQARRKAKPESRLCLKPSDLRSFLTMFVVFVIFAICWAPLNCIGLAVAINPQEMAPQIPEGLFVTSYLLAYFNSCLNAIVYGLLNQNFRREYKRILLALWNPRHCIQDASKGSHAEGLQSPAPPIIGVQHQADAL

`CC[C@H]1CN2CC[C@]3(C(=O)Nc4ccccc43)[C@@H]2C[C@@H]1/C(=C\OC)C(=O)OC` [RHYNCHOPHYLLINE] showed a metabolised [1] of 22%, an EC50 [2] of 45.3 µM and a bioavailability [3] of 25.9%.
For `CC#Cc1cncc(-c2ccc3c(c2)[C@@]2(CO3)N=C(N)C[C@H]2C(F)(F)F)c1`, the IC50 [4] was 0.115 µM.
`COC(=O)[C@H]1C(=O)N2CC[C@]3(C(=O)Nc4ccccc43)[C@H]2C[C@@H]1c1ccc(-c2cccc(Cl)c2)o1` showed an Activity [5] of 47%.
For `COC(=O)[C@@H]1C(=O)N2CC[C@@]3(C(=O)Nc4ccccc43)[C@@H]2C[C@H]1c1ccc(-c2ccc(Cl)c(Cl)c2)o1`, the Activity [5] was 61%.
In the case of `CC(C)[C@@]1(NC(=O)[C@@H]2C[C@@H]3c4cccc5[nH]cc(c45)C[C@H]3N(C)C2)O[C@@]2(O)[C@@H]3CCCN3C(=O)[C@H](Cc3ccccc3)N2C1=O` [DIHYDROERGOCRISTINE], the inhibition [6] is reported as 30%, the IC50 [7] is reported as 25 µM and the Ke [8] is reported as 9.8 µM.
For `CC[C@H]1CN2CC[C@]3(C(=O)Nc4ccccc43)C2C[C@@H]1/C(=C\OC)C(=O)OC` (stereo partly drawn), the Activity [9] was 63%, the Activity [10] was 25% and the Activity [11] was 88%.
With `Oc1cc(O)c2c(c1)O[C@H](c1ccc(O)c(O)c1)[C@H](O)[C@H]2c1c(O)cc(O)c2c1O[C@H](c1ccc(O)c(O)c1)[C@H](O)C2` [PROCYANIDIN B2] the inhibition [12] was 94%, the Cmax [13] was 0.16 µM and the inhibition [14] was 63%.
With `COC(=O)[C@H]1C(=O)N2CC[C@]3(C(=O)Nc4ccccc43)[C@H]2C[C@@H]1c1ccc(-c2ccc(Cl)c(Cl)c2)o1` the Activity [15] was 42%.
Work on `CC[C@H]1CN2CC[C@@]3(C(=O)Nc4ccccc43)[C@@H]2C[C@@H]1/C(=C\OC)C(=O)OC` [ISORHYNCHOPHYLLINE] yielded a metabolised [1] of 22% and a bioavailability [3] of 3.3%.
Work on `COC(=O)[C@@H]1C(=O)N2CC[C@@]3(C(=O)Nc4ccccc43)[C@@H]2C[C@H]1c1ccc(-c2cccc(Cl)c2)o1` yielded an Activity [5] of 20%.
In the case of `C/C=C1/CN2CCc3c([nH]c4ccccc34)[C@@H]2CC1/C(=C\C(=O)OC)OC` (stereo partly drawn), the IC50 [16] is reported as 3.7 µM and the IC50 [17] is reported as 10.1 µM.
Work on `Oc1cc(O)c2c(c1)O[C@H](c1ccc(O)c(O)c1)[C@@H](O)C2` [CIANIDANOL] yielded an IC50 [18] of 25.8 µM and an IC50 [19] of 47.3 µM.
